Experimental data from patent US7138361B2, “Herbicidal heterocycles” (E. I. du Pont de Nemours and Company, priority 2000, dated 2006).

What was measured:
Assay type in all cases: in vivo
[1] = system: cocklebur (Xanthium strumarium); assay: Test C preemergence; conditions: for Plant response rating (0 to 100), Cocklebur: visual evaluation after 12 to 14 days
Outline: (§1)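 Test chemicals, formulated in a non-phytotoxic solvent mixture with surfactant, were applied preemergence to planted seeds or postemergence to plants 2 to 18 cm tall (1- to 4-leaf stage). After 12 to 14 days in a greenhouse, injury was visually rated against untreated controls on a 0–100 scale.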

[2] = system: Surinam grass (Brachiaria decumbens); assay: Test C preemergence; conditions: for Plant response rating (0 to 100), Surinam grass: visual evaluation after 12 to 14 days
Outline: as §1

[3] = system: woolly cupgrass (Eriochloa villosa); assay: Test C preemergence; conditions: for Plant response rating (0 to 100), Cupgrass, Woolly: visual evaluation after 12 to 14 days
Outline: as §1

soybean (Glycine max) = assay: Test C preemergence; conditions: for Plant response rating (0 to 100), Soybean: Rate 500 g/ha, visual evaluation after 12 to 14 days
Outline: as §1

[4] = system: goosegrass (Eleusine indica); assay: Test C preemergence; conditions: for Plant response rating (0 to 100), Goosegrass: visual evaluation after 12 to 14 days
Outline: as §1

[5] = system: common ragweed (Ambrosia elatior); assay: Test C preemergence; conditions: for Plant response rating (0 to 100), Ragweed, Common: Rate 500 g/ha, visual evaluation after 12 to 14 days
Outline: as §1

Nightshade = assay: Test C preemergence
[6] = system: lambsquarters (Chenopodium album); assay: Test C preemergence; conditions: for Plant response rating (0 to 100), Lambsquarters: Rate 500 g/ha, visual evaluation after 12 to 14 days
Outline: as §1

[7] = system: crabgrass (Digitaria sanguinalis); assay: Test C preemergence; conditions: for Plant response rating (0 to 100), Crabgrass: visual evaluation after 12 to 14 days
Outline: as §1

[8] = system: pigweed (Amaranthus retroflexus); assay: Test C preemergence; conditions: for Plant response rating (0 to 100), Pigweed: Rate 500 g/ha, visual evaluation after 12 to 14 days
Outline: as §1

[9] = system: cocklebur (Xanthium strumarium); assay: Test B preemergence
Outline: (§2)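 Pre: seeded pots sprayed, chemical in non-phytotoxic solvent/surfactant mix. Post: plants 2–18 cm, 1–4 leaf, same formulation. Greenhouse 13–15 d; visual % control vs untreated, 0–100 scale.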

[10] = system: Surinam grass (Brachiaria decumbens); assay: Test B preemergence
Outline: as §2

corn (Zea mays) = assay: Test B preemergence
Outline: as §2

rice (Oryza saliva) = assay: Test B preemergence
Outline: as §2

[11] = system: giant foxtail (Setaria faberii); assay: Test B preemergence
Outline: as §2

[12] = system: velvetleaf (Abutilon theophrasti); assay: Test B preemergence
Outline: as §2

[13] = system: lambsquarters (Chenopodium album); assay: Test B preemergence
Outline: as §2

[14] = system: crabgrass (Digitaria sanguinalis); assay: Test B preemergence
Outline: as §2

[15] = system: morning glory (Ipomoea hederacea); assay: Test B preemergence
Outline: as §2

[16] = system: barnyardgrass (Echinochloa crus-galli); assay: Test B preemergence
Outline: as §2

[17] = system: pigweed (Amaranthus retroflexus); assay: Test B preemergence
Outline: as §2

[18] = Rate 125 g/ha, scale 0 to 100, 0 no effect, 100 complete control
[19] = preemergence, Rate 62 g/ha, scale 0 to 100
[20] = preemergence, Rate 250 g/ha, scale 0 to 100, 0 no effect, 100 complete control
[21] = Rate 250 g/ha, scale 0 to 100, 0 no effect, 100 complete control
[22] = Preemergence, Rate 500 g/ha, scale 0 to 100, 0 no effect, 100 complete control
[23] = preemergence, Rate 125 g/ha, scale of 0 to 100 where 0 is no effect and 100 is complete control, 13 to 15 days
[24] = Rate 62 g/ha, scale 0 to 100, 0 no effect, 100 complete control

## CCC(C)c1ccn(C2CCN(c3cccc(OC)c3)C2=O)n1 (centres unmarked) [Compound 95]
[1]; [18]
  Plant response rating, Cocklebur: 0
[1]; [19]
  Plant response rating, Cocklebur: 0
[1]; preemergence, Rate 500 g/ha
  Plant response rating (0 to 100), Cocklebur: 0
[1]; [20]
  Plant response rating, Cocklebur: 0
[2]; [18]
  Plant response rating, Surinam grass: 40
[2]; [19]
  Plant response rating, Surinam grass: 40
[2]; preemergence, Rate 500 g/ha
  Plant response rating (0 to 100), Surinam grass: 100
[2]; [20]
  Plant response rating, Surinam grass: 50
[3]; [18]
  Plant response rating, Cupgrass, Woolly: 100
[3]; [19]
  Plant response rating, Cupgrass, Woolly: 50
[3]; preemergence, Rate 500 g/ha
  Plant response rating (0 to 100), Cupgrass, Woolly: 100
[3]; [20]
  Plant response rating, Cupgrass, Woolly: 100
Soybean (Glycine max); [18]
  Plant response rating, Soybean: 0
Soybean (Glycine max); [19]
  Plant response rating, Soybean: 0
Soybean (Glycine max); preemergence
  Plant response rating (0 to 100), Soybean: 30
Soybean (Glycine max); [20]
  Plant response rating, Soybean: 0
[4]; [18]
  Plant response rating, Goosegrass: 100
[4]; [19]
  Plant response rating, Goosegrass: 100
[4]; preemergence, Rate 500 g/ha
  Plant response rating (0 to 100), Goosegrass: 100
[4]; [20]
  Plant response rating, Goosegrass: 100
[5]; [18]
  Plant response rating, Ragweed, Common: 0
[5]; [19]
  Plant response rating, Ragweed, Common: 0
[5]; preemergence
  Plant response rating (0 to 100), Ragweed, Common: 10
[5]; [20]
  Plant response rating, Ragweed, Common: 0
Nightshade; Rate 62 g/ha, scale 0 to 100
  Plant response rating, Nightshade: 0
Nightshade; [18]
  Plant response rating, Nightshade: 0
Nightshade; [21]
  Plant response rating, Nightshade: 0
[6]; [18]
  Plant response rating, Lambsquarters: 100
[6]; [19]
  Plant response rating, Lambsquarters: 100
[6]; preemergence
  Plant response rating (0 to 100), Lambsquarters: 100
[6]; [20]
  Plant response rating, Lambsquarters: 100
[7]; [18]
  Plant response rating, Crabgrass: 100
[7]; [19]
  Plant response rating, Crabgrass: 100
[7]; preemergence, Rate 500 g/ha
  Plant response rating (0 to 100), Crabgrass: 100
[7]; [20]
  Plant response rating, Crabgrass: 100
[8]; [18]
  Plant response rating, Pigweed: 0
[8]; [19]
  Plant response rating, Pigweed: 100
[8]; preemergence
  Plant response rating (0 to 100), Pigweed: 60
[8]; [20]
  Plant response rating, Pigweed: 0
[9]; [22]
  Plant response rating, Cocklebur: 60
[9]; [23]
  Plant response rating, Cocklebur: 0
[10]; [22]
  Plant response rating, Surinam grass: 90
[10]; [23]
  Plant response rating, Surinam grass: 60
Corn (Zea mays); [22]
  Plant response rating, Corn: 50
Corn (Zea mays); [23]
  Plant response rating, Corn: 20
Rice (Oryza saliva); [22]
  Plant response rating, Rice: 100
Rice (Oryza saliva); [23]
  Plant response rating, Rice: 90
[11]; [22]
  Plant response rating, Foxtail, Giant: 100
[11]; [23]
  Plant response rating, Foxtail, Giant: 100
[12]; [22]
  Plant response rating, Velvetleaf: 50
[12]; [23]
  Plant response rating, Velvetleaf: 0
[13]; [22]
  Plant response rating, Lambsquarters: 100
[13]; [23]
  Plant response rating, Lambsquarters: 100
[14]; [22]
  Plant response rating, Crabgrass: 100
[14]; [23]
  Plant response rating, Crabgrass: 100
[15]; [22]
  Plant response rating, Morningglory: 60
[15]; [23]
  Plant response rating, Morningglory: 0
[16]; [22]
  Plant response rating, Barnyardgrass: 100
[16]; [23]
  Plant response rating, Barnyardgrass: 90
[17]; [22]
  Plant response rating, Pigweed: 100
[17]; [23]
  Plant response rating, Pigweed: 100

## CC(C)(C)c1ccn(C2CCN(c3ccc(F)c(Br)c3)C2=O)n1 (centres unmarked) [Compound 75]
[1]; [24]
  Plant response rating, Cocklebur: 0
[1]; [18]
  Plant response rating, Cocklebur: 0
[1]; preemergence, Rate 250 g/ha
  Plant response rating (0 to 100), Cocklebur: 0
[1]; preemergence, Rate 500 g/ha
  Plant response rating (0 to 100), Cocklebur: 0
[2]; [24]
  Plant response rating, Surinam grass: 10
[2]; [18]
  Plant response rating, Surinam grass: 40
[2]; preemergence, Rate 250 g/ha
  Plant response rating (0 to 100), Surinam grass: 60
[2]; preemergence, Rate 500 g/ha
  Plant response rating (0 to 100), Surinam grass: 60
[3]; [24]
  Plant response rating, Cupgrass, Woolly: 60
[3]; [18]
  Plant response rating, Cupgrass, Woolly: 80
[3]; preemergence, Rate 250 g/ha
  Plant response rating (0 to 100), Cupgrass, Woolly: 100
[3]; preemergence, Rate 500 g/ha
  Plant response rating (0 to 100), Cupgrass, Woolly: 100
Soybean (Glycine max); [18]
  Plant response rating, Soybean: 0
Soybean (Glycine max); preemergence
  Plant response rating (0 to 100), Soybean: 50
Soybean (Glycine max); [20]
  Plant response rating, Soybean: 0
[4]; [24]
  Plant response rating, Goosegrass: 90
[4]; [18]
  Plant response rating, Goosegrass: 100
[4]; preemergence, Rate 250 g/ha
  Plant response rating (0 to 100), Goosegrass: 100
[4]; preemergence, Rate 500 g/ha
  Plant response rating (0 to 100), Goosegrass: 100
[5]; [18]
  Plant response rating, Ragweed, Common: 0
[5]; preemergence
  Plant response rating (0 to 100), Ragweed, Common: 60
[5]; [20]
  Plant response rating, Ragweed, Common: 0
Nightshade; [24]
  Plant response rating, Nightshade: 0
Nightshade; [18]
  Plant response rating, Nightshade: 0
Nightshade; [21]
  Plant response rating, Nightshade: 0
[6]; [24]
  Plant response rating, Lambsquarters: 100
[6]; [18]
  Plant response rating, Lambsquarters: 100
[6]; preemergence
  Plant response rating (0 to 100), Lambsquarters: 100
[6]; [20]
  Plant response rating, Lambsquarters: 100
[7]; [24]
  Plant response rating, Crabgrass: 90
[7]; [18]
  Plant response rating, Crabgrass: 100
[7]; preemergence, Rate 250 g/ha
  Plant response rating (0 to 100), Crabgrass: 100
[7]; preemergence, Rate 500 g/ha
  Plant response rating (0 to 100), Crabgrass: 100
[8]; [18]
  Plant response rating, Pigweed: 100
[8]; preemergence
  Plant response rating (0 to 100), Pigweed: 100
[8]; [20]
  Plant response rating, Pigweed: 100
[9]; [22]
  Plant response rating, Cocklebur: 70
[9]; [23]
  Plant response rating, Cocklebur: 30
[10]; [22]
  Plant response rating, Surinam grass: 100
[10]; [23]
  Plant response rating, Surinam grass: 60
Corn (Zea mays); [22]
  Plant response rating, Corn: 20
Corn (Zea mays); [23]
  Plant response rating, Corn: 0
Rice (Oryza saliva); [22]
  Plant response rating, Rice: 70
Rice (Oryza saliva); [23]
  Plant response rating, Rice: 50
[11]; [22]
  Plant response rating, Foxtail, Giant: 100
[11]; [23]
  Plant response rating, Foxtail, Giant: 100
[12]; [22]
  Plant response rating, Velvetleaf: 70
[12]; [23]
  Plant response rating, Velvetleaf: 50
[13]; [22]
  Plant response rating, Lambsquarters: 100
[13]; [23]
  Plant response rating, Lambsquarters: 100
[14]; [22]
  Plant response rating, Crabgrass: 100
[14]; [23]
  Plant response rating, Crabgrass: 100
[15]; [22]
  Plant response rating, Morningglory: 0
[15]; [23]
  Plant response rating, Morningglory: 0
[16]; [22]
  Plant response rating, Barnyardgrass: 100
[16]; [23]
  Plant response rating, Barnyardgrass: 100
[17]; [22]
  Plant response rating, Pigweed: 100
[17]; [23]
  Plant response rating, Pigweed: 100
